These results are taken from a melting point compilation (Tetko et al.).

Broadly, the melting point is the temperature, or range, at which the solid turns liquid. `O=C(O)c1cccc(C(=O)N2CCCC2)n1` registered a melting point of 125 to 127 °C.

As to `Cc1nc(-c2ccc(F)cc2)sc1C(=O)O`, the melting point lay in the range of 251 to 253 °C.

Compound `NC(=S)c1ccc(Cl)c(Cl)c1` gave a melting point of 136 to 138 °C.

As to `O=[N+]([O-])c1ccc(N2CCC(CO)CC2)nc1`, the melting point was 123 to 125 °C.

On to `O=Cc1c[nH]nc1-c1cccc(Cl)c1`, for which the melting point lay within 139 to 141 °C.

`Fc1ccc(-c2csc3ncnc(S)c23)cc1` registered a melting point of 244 to 246 °C.

The compound `O=C(O)/C=C/c1ccc(S(=O)(=O)NC2CC2)cc1` yielded a melting point of 263 to 265 °C.

`COc1ccc(N)cc1NC(=O)C1CCCCC1`: the melting point fell in the range of 147 to 149 °C.

`NC1(c2ccc(Cl)cc2)CCOCC1` gave a melting point of 50 to 52 °C.

The compound `CC(C)C(=O)Nc1ccc(C(=O)O)cc1` gave a melting point of 240 to 242 °C.

As to `O=C1CCc2c(Cl)cc(Cl)cc21`, the melting point was 109 to 111 °C.

The compound `CS(=O)(=O)c1c(F)cc(N)cc1F` displayed a melting point of 169 to 171 °C.

`Cc1ccc(S(=O)(=O)Nc2ccc(O)cc2)s1` came in with a melting point of 106 to 108 °C.

Turning to `COCCNS(=O)(=O)c1ccc(Br)c(C(=O)O)c1`, the melting point lay in the range of 194 to 197 °C.

In turn, `COc1cc2[nH]nnc2cc1C(=O)O` gave a melting point of 219 to 221 °C.

On to `O=C(O)c1cccc(S(=O)(=O)CC(F)F)c1`, for which the melting point is 170 to 172 °C.

As to `O=S(=O)(Cl)c1cc(Br)ccc1F`, the melting point is 68 to 70 °C.

Consider `O=C(O)C(=Cc1cccs1)n1nnnc1-c1ccccc1`, for which the melting point lay in the range of 204 to 206 °C.

In turn, `CCOC(=O)Cn1ncc2ccccc21` came in with a melting point of 34 to 36 °C.

Take `Ic1ccc(OCc2ccncc2)cc1`: the melting point lay in the range of 152 to 154 °C.

As for `Nc1cc(Cl)ccc1C(=O)Nc1ccc(Cl)cn1`, the melting point was 157 to 159 °C.

Regarding `CC(=O)Nc1cc(-c2csc(N)n2)ccc1O`, the melting point is 218 to 222 °C.

In turn, `Cc1nc2ccccc2c(N)c1C(C)C` showed a melting point of 123 to 125 °C.

The compound `Cc1cc(C(=O)CCl)c(C)n1-c1cccc(Br)c1` returned a melting point of 102 to 104 °C.

On to `CS(=O)(=O)NCCc1ccc(C(=O)O)cc1`, for which the melting point lay in the range of 171 to 173 °C.

Consider `CCn1c2ccccc2c2cc(CNCCCO)ccc21`, for which the melting point was in the range of 76 to 78 °C.

On to `O=C(O)Cc1ccc2c(c1)CCO2`, for which the melting point fell in the range of 102 to 104 °C.

Take `c1ccc(-c2noc(CSc3nnc(-c4ccncc4)o3)n2)cc1`: the melting point was 134 to 136 °C.

Take `N#CC1CSCCS1` (stereo unspecified): the melting point fell in the range of 76 to 78 °C.

In turn, `Cc1cc(C(=O)CCl)c(C)n1-c1cccc(S(=O)(=O)N2CCOCC2)c1` gave a melting point of 171 to 173 °C.

The compound `O=C(O)c1cc(Br)ccc1I` showed a melting point of 120 to 122 °C.

In turn, `Clc1cc(Cl)c(SSc2cc(Cl)c(Cl)cc2Cl)cc1Cl` registered a melting point of 140 to 144 °C.

Regarding `C=CCNC(=O)c1ccc(N)cc1`, the melting point lay in the range of 78 to 80 °C.

In turn, `O=C(Nc1cccc([N+](=O)[O-])c1)OCC(F)(F)F` returned a melting point of 98 to 100 °C.

`COC(=O)c1cc([N+](=O)[O-])c[nH]c1=O` yielded a melting point of 254 to 256 °C.

As to `CC(C)(C)NCC(N)=O`, the melting point is 49 to 51 °C.

Compound `COc1ccc2[nH]nc(N)c2c1` gave a melting point of 159 to 161 °C.

Compound `O=C(O)c1nc(NCc2ccccc2)ncc1Cl` returned a melting point of 165 to 167 °C.

For `Cn1cc(-c2nc(C(=O)O)cs2)cn1`, the melting point fell in the range of 262 to 264 °C.

For `Cc1ccc(NC(=O)CO)cc1`, the melting point lay in the range of 139 to 141 °C.

In the case of `COc1ccc(S(=O)(=O)N(C)c2ccc(O)cc2)cc1`, the melting point was 88 to 90 °C.

On to `O=C1COc2cc(Br)c(Cl)cc2N1`, for which the melting point was 281 to 283 °C.

`Cc1ccc(O)c(C=O)n1` gave a melting point of 64 to 66 °C.

`CC1CCc2c(sc(N)c2C(N)=O)C1` (stereo unspecified) yielded a melting point of 188 to 190 °C.

As to `O=C(O)c1cc(NS(=O)(=O)c2cccs2)ccc1O`, the melting point lay within 209 to 211 °C.

`OCCCNc1ccncc1` displayed a melting point of 98 to 100 °C.

As for `COC(=O)c1cc(F)cc(OC)c1N`, the melting point was in the range of 66 to 68 °C.

The compound `O=C(CCl)N1CCN(S(=O)(=O)c2ccc(F)c(Cl)c2)CC1` came in with a melting point of 121 to 123 °C.

Take `NC(=O)c1cccc2[nH]ccc12`: the melting point was 138 to 140 °C.

Consider `Nc1ccc(S(=O)(=O)Nc2cccc(C(F)(F)F)c2)cc1N`, for which the melting point was 143 to 147 °C.

`CCOC(=O)c1nc2ccccc2c(=O)[nH]1` showed a melting point of 189 to 193 °C.

In turn, `O=C(O)C1=Cc2cc(F)ccc2OC1` showed a melting point of 209 to 211 °C.

Turning to `NC(=S)NCc1ccc(Br)cc1`, the melting point was in the range of 159 to 161 °C.

Compound `CCOC=C(C#N)C(=O)O` yielded a melting point of 63 to 65 °C.

The compound `COc1cccc2c1CCCC(=O)N2` had a melting point of 159 to 161 °C.

Compound `CN(C)c1ncncc1N` showed a melting point of 97 to 99 °C.

In the case of `Cc1ccccc1NC1=NC(C)(C)CS1`, the melting point was in the range of 159 to 161 °C.

Consider `COc1ccc(NC(=O)Nc2ccc(OC)nc2)cn1`, for which the melting point was 215 to 217 °C.

`O=S(=O)(c1ccc(Cl)nc1)N1CCCC1` showed a melting point of 149 to 151 °C.

In the case of `O=C(O)c1ccc(C2CC2)s1`, the melting point fell in the range of 111 to 113 °C.

Consider `O=C(O)Cn1c(=O)cnc2ccccc21`, for which the melting point was in the range of 195 to 199 °C.

As for `O=C(O)c1ccc(COc2ccccc2)s1`, the melting point fell in the range of 134 to 136 °C.

`NNc1ccc([N+](=O)[O-])cn1` returned a melting point of 194 to 196 °C.

With `O=C(O)C1(Cc2cccc(Cl)c2)CCCC1`, the melting point was 60 to 62 °C.

In the case of `CCCOc1ccc(N)cc1Cl`, the melting point was in the range of 49 to 51 °C.

Take `Clc1nccc(-n2cccn2)n1`: the melting point was in the range of 118 to 120 °C.

The compound `O=C1CCc2cc(OCCO)ccc2N1` had a melting point of 180 to 182 °C.

For the compound `CCc1nnc(NC(=O)CCl)s1`, the melting point fell in the range of 101 to 103 °C.

Regarding `O=C(CCl)Nc1ccc(N2CCCC2=O)cc1`, the melting point was 258 to 260 °C.

In turn, `O=C(O)c1cc(S(=O)(=O)NC2CC2)ccc1Br` had a melting point of 221 to 223 °C.

Take `O=C(O)CNC(=O)c1cccc(OCc2ccccc2)c1`: the melting point is 185 to 187 °C.

On to `COc1ccc2sc(C(=O)O)c(C)c2c1`, for which the melting point lay in the range of 254 to 256 °C.

On to `O=C(O)Cc1c[nH]c2ccc(Cl)cc12`, for which the melting point was in the range of 157 to 159 °C.

`O=C(O)C1CCSC1` (stereo unspecified) came in with a melting point of 60 to 62 °C.

For the compound `O=Cc1ccccc1OCc1cccnc1`, the melting point lay in the range of 57 to 59 °C.

The compound `CN(C)C(=O)c1cccc(N)c1` showed a melting point of 84 to 86 °C.

Turning to `NNC1=NC(=O)C(=O)N1`, the melting point lay in the range of 144 to 146 °C.

In turn, `CCOC(=O)c1[nH]c(C)c(C(=O)CCl)c1C` displayed a melting point of 159 to 161 °C.

With `CC1CCN(CCCC(N)=NO)CC1`, the melting point lay within 98 to 100 °C.

Regarding `O=C(O)CCNS(=O)(=O)c1cccc(Br)c1`, the melting point was 146 to 148 °C.

`CC(C)(C)OC(=O)NC1CCCCCC1=O` (stereo unspecified): the melting point was in the range of 67 to 69 °C.

The compound `Cn1ccc(S(=O)(=O)N2CCNCC2)c1` gave a melting point of 129 to 131 °C.

As to `O=S(=O)(c1ccc(C(F)(F)F)cc1)N1CCNCC1`, the melting point fell in the range of 163 to 169 °C.

Consider `O=C(O)c1nnn(-c2cccc(F)c2)c1C1CC1`, for which the melting point was 149 to 151 °C.

`CC(C)(C)n1cc(N)cn1` returned a melting point of 56 to 58 °C.

The compound `Nc1cccc(-c2cn3cccnc3n2)c1` showed a melting point of 125 to 130 °C.

In turn, `Cc1cc(N2CCN(C)CC2)ccc1N` displayed a melting point of 100 to 102 °C.

`Cc1nn(-c2ccc(Cl)c(Cl)c2)c(C)c1CC(=O)O` came in with a melting point of 140 to 142 °C.

`COc1ccc(CCC(=O)O)c(OC)c1OC` had a melting point of 73 to 75 °C.

In the case of `Cc1noc(C)c1S(=O)(=O)N1CCCC1C(=O)O` (stereo unspecified), the melting point lay within 133 to 137 °C.

Compound `Cc1noc(-c2ccc(N)c(C)c2)n1` displayed a melting point of 161 to 163 °C.

As for `CCOc1cc(C=O)cc(Cl)c1O`, the melting point fell in the range of 145 to 147 °C.

The compound `COc1ccc(Br)c(S(=O)(=O)Cl)c1` showed a melting point of 63 to 65 °C.

For the compound `CS(=O)(=O)c1cccc(Cl)c1C=O`, the melting point is 102 to 104 °C.

Consider `CN(C)S(=O)(=O)c1ccc(F)c(C(=O)O)c1`, for which the melting point was 163 to 165 °C.

Turning to `O=c1[nH]cnc2cnc(Cl)cc12`, the melting point was 309 to 311 °C.

In turn, `O=C(NCc1ccc(C(=O)O)cc1)OCc1ccccc1` had a melting point of 190 to 192 °C.

Compound `O=C(O)c1ccc(C(F)(F)F)[nH]c1=O` had a melting point of 161 to 163 °C.

As for `COC(=O)/C=C1\SCC(=O)N1CCCCl`, the melting point is 95 to 97 °C.

Turning to `Cc1ccc(NC2C=CS(=O)(=O)C2)cc1` (stereo unspecified), the melting point was in the range of 115 to 117 °C.

As to `ClCc1nc2ncc(Br)cc2[nH]1`, the melting point lay in the range of 209 to 211 °C.

Compound `Cc1cc(C(=O)O)c(Br)s1` yielded a melting point of 181 to 183 °C.

In turn, `O=C(O)c1ccc2nnn(O)c2c1` gave a melting point of 229 to 231 °C.

`CC(C)S(=O)(=O)Nc1ccc(S(N)(=O)=O)cc1F` came in with a melting point of 134 to 136 °C.

`Cc1cc(C(=O)CCl)c(C)[nH]1` returned a melting point of 143 to 145 °C.

In turn, `Cc1ccnn1-c1ccccn1` showed a melting point of 34 to 36 °C.

In the case of `Cc1cc([N+](=O)[O-])n[nH]1`, the melting point is 153 to 155 °C.

The compound `Nc1ccccc1C(=O)Nc1cccc(C(F)(F)F)c1` gave a melting point of 133 to 135 °C.

With `NN1C(=O)CNC1=O`, the melting point lay in the range of 190 to 192 °C.

In turn, `O=C(O)CNS(=O)(=O)C=Cc1ccccc1` returned a melting point of 80 to 82 °C.

With `O=C(O)CCc1nc(Cc2ccccc2)no1`, the melting point was in the range of 66 to 68 °C.

In turn, `O=C(O)c1ccc(SCc2cn3ccccc3n2)cc1` gave a melting point of 102 to 103 °C.

`CSc1ncc(C(=O)O)n1-c1ccccc1` returned a melting point of 206 to 208 °C.

In turn, `O=C(O)c1cc([N+](=O)[O-])c(F)cc1I` came in with a melting point of 158 to 160 °C.

In the case of `CCOC(=O)c1ccc(S(=O)(=O)Cl)cc1`, the melting point is 49 to 51 °C.

`Cc1cncc(C(=O)O)c1O` gave a melting point of 249 to 251 °C.

As for `CS(=O)(=O)N1CCN(C(=O)c2ccc(O)cc2)CC1`, the melting point fell in the range of 211 to 213 °C.

`Cc1cc(C)n(C(C)C(=O)Nc2ccc(N)cc2Cl)n1` (stereo unspecified) gave a melting point of 198 to 200 °C.

As to `COC(=O)c1sc(-c2cccc(Cl)c2)cc1N`, the melting point lay within 100 to 102 °C.

`COc1cc(CN)ccc1OCCO` had a melting point of 113 to 115 °C.

Turning to `COc1cc(Br)c(C=O)c(OC)c1`, the melting point was in the range of 89 to 91 °C.
